The text below walks through data of patent US6355639B1, “Reverse prenyl compounds as immunosuppressants” (Sloan-Kettering Institute for Cancer Research, priority 1997, dated 2002).

Values joined by “and” are separate entries in the source; they are usually repeats but may differ in a detail not shown here. Equal entries are not always repeated. Where two headings read alike, the source gives them in different places. Marks after values point to notes of the source that are not given here.

The subject of data set [1] is peripheral blood lymphocytes stimulated by PHA. The data set can be described thus: PHA stimulation assay, [3H]TdR incorporation. The format is cell-based, human. The conditions noted are these: Reverse Prenyl Compounds, read-out: IC50 PHA Assays. How it is done: (§1) Fresh peripheral blood lymphocytes isolated by Ficoll-Hypaque density centrifugation are stimulated by PHA or the OKT3 antibody (anti-CD3), which stimulates via interaction with CD3. Stimulation is measured by incorporation of radioactive thymidine [(^3H)TdR] into proliferating cells, with an unhibited control signal of 48,000-75,000 cpm. IC50 values are estimated from inhibitions of proliferation observed at various drug concentrations.

Data set [2] has as its system peripheral blood lymphocytes stimulated by OKT3 antibody (anti-CD3). The data set can be described thus: OKT3 stimulation assay, [3H]TdR incorporation. It is filed as cell-based, human. The conditions noted are these: Reverse Prenyl Compounds, read-out: IC50 OKT3 Assays. How it is done: as §1
Data set [3] deals with Human Peripheral Blood Lymphocytes. The data set can be described thus: Thymidine incorporation assay: activation of human peripheral blood lymphocytes by phytohemagglutinin. The format is cell-based. The note with it: drug 30 min, then 10 μg/ml PHA 24 hrs, [3H]Thd incorporation. How it is done: Inhibitory Effects of Ardeemin Compounds on the Activation of Human Peripheral Blood Lymphocytes by Phytohemagglutinin
Thymidine Incorporation Assay:
PBL were exposed to various concentrations of drugs for 30 min and then added 10 μg/ml PHA for 24 hrs. [^3H]Thd (1 μCi/well) was then added and incubated for 1 hr. The reaction is stopped by adding 10% TCA for analysis of [^3H]Tdk incorporation into DNA.

The next data set relates to B6D2F1 mice. The data set can be described thus: Cumulative toxicity in B6D2F1 mice. On the procedure: FIG. 2 illustrates the cumulative toxicity in B6D2F1 mice treated with multidrug resistance reversal agents (mg/kg,i.p.,QD). Each group consists of five mice. […] Cumulated doses in the series shown in panels A, B and C were 712.5, 1700 and 3950 mg/kg×day, respectively.

The subject of data set [4] is heterotopic cardiac transplants. The data set can be described thus: Heterotopic mouse cardiac transplants (prospective example). The format is in vivo, mice. The conditions noted are these: 40 mg/kg-1 mg/25 g per day, i.v., 7 or 14 days, Alzet pump. On the procedure:
5-N-Acetylardeemin and 5-N-acetyl-8-desmethylardeemin are individually administered to mice which have received heterotopic cardiac transplants at a range of concentrations (40 mg/kg-1 mg/25 g per day), i.v., for seven days or fourteen days using an Alzet pump. Each compound is dissolved in DMSO at high concentration prior to administration. Control animals receive the same volume of carrier solvent (40 μL DMSO).

For a further data set, the system named is P388/0 Tumors. It is filed as in vivo. Details: SURVIVAL TIME of individual mice (No. 1-6): unit: days. How it is done: Survival times were determined for B6D2F1 mice inoculated with P388/0 cells, 10^6 cells/mouse, i.p. at Day 0. The mice were treated by adriamycin and 5-N-acetylardeemin, i.p., daily for four days. Survival times were recorded based on the time of death with the following scheme of decimal values: 8AM (0.0), 1PM (0.25), 5PM (0.5). An in vivo immunosuppressive effect of the ardeemin derivatives is found which persistently […] the lifespan of P388 tumor-bearing B6D2F1 mice in a dose-dependent manner.

Data set [5] relates to inflammation induced by carrageene. The data set can be described thus: Inflammation induced by carrageene in mice pedis. The format is in vivo. On the procedure:
FIG. 3 illustrates the delayed treatment of inflammation induced by carrageene with aspirin, N-acetylardeemin and hydrocortisone. (●) Control; (▪) Aspirin (500 mg/kg, p.o.); (Δ) N-acetylardeemin (100 mg/kg, i.p.); (x) Hydrocortisone cream.
FIG. 4 illustrates the treatment of inflammation induced by carrageene with aspirin, N-acetylardeemin and hydrocortisone. (●) Control; (▪) Aspirin (500 mg/kg, p.o.); (Δ) N-acetylardeemin (100 mg/kg, i.p.); (x) Hydrocortisone cream.

The test system is the same in data set [6]. The data set can be described thus: Inflammation induced by carrageene in mice pedis. It is filed as in vivo. The source holds these as a separate data set.
Data set [7] has as its system peripheral blood lymphocytes stimulated by PHA. The conditions noted are these: Classical immunosuppressant (historical data); read-out: IC50 PHA Assays; cited from earlier work.
The test system of data set [8] is peripheral blood lymphocytes stimulated by OKT3 antibody (anti-CD3). The conditions noted are these: Classical immunosuppressant (historical data); read-out: IC50 OKT3 Assays; cited from earlier work.
Setting [9] is: 5NAcArd 3.33 mg/kg i.p. daily Day 1-4.
The mark [10] stands for this setting: 5NAcArd 10 mg/kg i.p. daily Day 1-4.
Setting [11] is: 5NAcArd 30 mg/kg i.p. daily Day 1-4.
The mark [12] stands for this setting: Adr 0.333 mg/kg i.p. daily Day 1-4.
The mark [13] stands for this setting: Adr 1.0 mg/kg i.p. daily Day 1-4.
Setting [14] is: Adr 3.0 mg/kg i.p. daily Day 1-4.

Consider 5-N-Ac-F3-Ardeemin, for which the IC50 in data set [1] is 9970 ± 1490 nM; in data set [2], 4560 nM.
8-demethylardeemin: the IC50 in data set [3] is 2260 nM; in data set [1] (listed as 8-Desmethylardeemin), 2260 ± 60 nM; in data set [2] (listed as 8-Desmethylardeemin), 2230 ± 160 nM; in data set [2] (listed as 8-desmethylardeemin) it was 1200 to 2300 nM.
As to `C=CC(C)(C)[C@@]12C[C@H]3c4nc5ccccc5c(=O)n4CC(=O)N3[C@@H]1N(C(C)=O)c1ccccc12` [5-N-acetyl-8-demethylardeemin, 5-N-acetyl-8-desmethylardeemin], the IC50 turned out to be 980 nM in [3], 1200 ± 20 nM in data set [1] (listed as 5-N-Ac-8-desmethylardeemin) and 1130 ± 130 nM in data set [2]. Further, the toxicity to mice result with B6D2F1 mice (FIG. 2, i.p., QD) was “very nontoxic”; with B6D2F1 mice (sequential 100 mg/kg i.p. QDx6, 150 mg/kg QDx8, 200 mg/kg QDx3, 300 mg/kg QDx3), “non-toxic”. Besides, in the data set on B6D2F1 mice (up to 250 mg/kg, Qdx3), the “average body weight decreases” value is given as “less than 0.5 g”. In [4], the “resistance of organ transplant to graft rejection vs control mice” value is recorded as “more resistant to graft rejection”.
For the compound `C=CC(C)(C)[C@@]12C[C@H]3c4nc5ccccc5c(=O)n4[C@H](C)C(=O)N3[C@@H]1N(C(C)=O)c1ccccc12` [5-N-acetylardeemin], the midpoint of inhibition in [3], the IC50, lay at 1910 nM. Further, the IC50 in data set [1] turned out to be 7960 nM. Besides, in data set [2], the IC50 was determined as 31900 nM. Also, in the data set on P388/0 Tumors (setting [9]), the “% ILS (% increase in lifespan)” value is −2%, the “AWC D 4” value was “+0.9 Gm”, the “AWC D 6” value was “+3.3 Gm” and the “MST (mean survival time)” value was found to be 7.25. Moreover, the “SURVIVAL TIME of individual mice (No. 1-6)” value (“SURVIVAL TIME … (No. 1-6)” for short) with P388/0 Tumors (setting [9]) is 8.0 (2×) and 6.0 and 7.0. In the data set on P388/0 Tumors (setting [10]), the “% ILS (% increase in lifespan)” value is on record as −10%, the “AWC D 4” value is recorded as “+1.7 Gm”, the “AWC D 6” value is “+4.8 Gm” and the “MST (mean survival time)” value was 6.67. In addition, the “SURVIVAL TIME … (No. 1-6)” value in the data set on P388/0 Tumors (setting [10]) is 7.5 and 6.0 and 6.5. Also, in the data set with P388/0 Tumors (setting [11]), the “% ILS (% increase in lifespan)” value was −16%, the “AWC D 4” value was “+1.6 Gm”, the “AWC D 6” value is given as “+3.8 Gm” and the “MST (mean survival time)” value is 6.25. Besides, the “SURVIVAL TIME … (No. 1-6)” value in the data set on P388/0 Tumors (setting [11]) is 6.0 and 6.5. Moreover, in data set [5] (100 mg/kg i.p.), the “Average Pedis Area, Hours: 0” value is on record as 7.1 mm^2; the “Average Pedis Area, Hours: 60” value was 10.2*** mm^2; the “Toxicity Death” value was 0/5. Also, the toxicity to mice entry in the data set with B6D2F1 mice (FIG. 2, i.p., QD) is “relatively nontoxic”. For the same compound, in data set [4], the “resistance of organ transplant to graft rejection vs control mice” value is recorded as “more resistant to graft rejection”. In [6] (50 mg/kg i.p.), the “Average Pedis Area, Hours: 0” value was 6.8 mm^2; the “Average Pedis Area, Hours: 12” value stood at 12.4 mm^2; the “Average Pedis Area, Hours: 24” value is 12.7 mm^2; the “Average Pedis Area, Hours: 48” value was 11.3* mm^2. Moreover, in [6] (50 mg/kg i.p.), the “Average Pedis Area, Hours: 60” value turned out to be 15.6 mm^2 and the “Toxicity Death” value is given as 0/5. In data set [6] (100 mg/kg i.p.), the “Average Pedis Area, Hours: 12” value is recorded as 9.7*** mm^2; the “Average Pedis Area, Hours: 24” value is listed as 9.0*** mm^2; the “Average Pedis Area, Hours: 48” value is given as 8.6*** mm^2.
Turning to `S=c1nc[nH]c2nc[nH]c12` [6-MP], the IC50 was 44 ± 17 nM in data set [7] and 136 ± 19 nM in data set [8].
For `COc1cccc2c1C(=O)c1c(O)c3c(c(O)c1C2=O)C[C@@](O)(C(=O)CO)C[C@@H]3O[C@H]1C[C@H](N)[C@H](O)[C@H](C)O1` [Adr, adriamycin, reference compound], the “% ILS (% increase in lifespan)” value was found to be 85% in the data set with P388/0 Tumors (setting [12]), 129% with P388/0 Tumors (setting [13]) and 145% with P388/0 Tumors (setting [14]). The “MST (mean survival time)” value in the data set on P388/0 Tumors (setting [12]) was found to be 13.75; with P388/0 Tumors (setting [13]), 17.0; in the data set with P388/0 Tumors (setting [14]), 18.19.
For `CC(=O)Oc1ccccc1C(=O)O` [Aspirin], the “Average Pedis Area, Hours: 0” value in [5] (500 mg/kg p.o.) is reported as 6.8 mm^2. Further, in data set [6] (250 mg/kg p.o.), the “Average Pedis Area, Hours: 0” value was found to be 6.9 mm^2; the “Average Pedis Area, Hours: 12” value stood at 12.5 mm^2; the “Average Pedis Area, Hours: 24” value was 12.3 mm^2; the “Average Pedis Area, Hours: 48” value was 13.2 mm^2. Further, in data set [6] (250 mg/kg p.o.), the “Average Pedis Area, Hours: 60” value is listed as 15.4** mm^2 and the “Toxicity Death” value was 0/5. For the same compound, in [6] (500 mg/kg p.o.), the “Average Pedis Area, Hours: 12” value is 9.9** mm^2; the “Average Pedis Area, Hours: 24” value was 10.6** mm^2; the “Average Pedis Area, Hours: 48” value is 9.0*** mm^2; the “Average Pedis Area, Hours: 60” value was 10.0*** mm^2. The “Toxicity Death” value in data set [6] (500 mg/kg p.o.) is listed as 0/5. For the same compound, in data set [6] (1000 mg/kg p.o.), the “Average Pedis Area, Hours: 0” value came to 6.5 mm^2; the “Average Pedis Area, Hours: 12” value is listed as 8.8*** mm^2; the “Toxicity Death” value is recorded as 5/6.
As to `Cc1c(-c2ccc(-c3ccccc3F)cc2)nc2ccc(F)cc2c1C(=O)O` [Brequinard], the IC50 in data set [3] is 11200 nM; in data set [7] it was 11200 ± 4000 nM; in [8], 56600 ± 22700 nM.
In turn, `C[C@@H]1C[C@H]2[C@@H]3CCC4=CC(=O)C=C[C@]4(C)[C@@]3(F)[C@@H](O)C[C@]2(C)[C@@]1(O)C(=O)CO` [Dexamethasone, reference compound] yielded an IC50 in data set [3] (Homo sapiens, Lymphocyte) of 28200 nM.
`C=CC(C)(C)[C@@]12Nc3ccccc3[C@]1(O)C[C@H]1C(=O)N3[C@@H](C[C@]4(O)c5ccccc5N[C@]34C(C)(C)C=C)C(=O)N12` [Gypsetin]: the IC50 worked out at 5480 ± 1240 nM in data set [1] and 12000 ± 510 nM in [2].
For `C[C@]12CCC(=O)C=C1CC[C@@H]1[C@@H]2[C@@H](O)C[C@@]2(C)[C@H]1CC[C@]2(O)C(=O)CO` [Hydrocortisone], in data set [5] (1% Cream, Skin), the “Average Pedis Area, Hours: 12” value is reported as 9.0*** mm^2 and the “Toxicity Death” value is recorded as 0/5. Further, in [6] (1% Cream, Skin), the “Average Pedis Area, Hours: 0” value is recorded as 6.9 mm^2; the “Average Pedis Area, Hours: 24” value is 8.9*** mm^2; the “Average Pedis Area, Hours: 48” value was 7.8*** mm^2; the “Average Pedis Area, Hours: 60” value is on record as 7.9*** mm^2.
In the case of `COc1c(C)c2c(c(O)c1C/C=C(\C)CCC(=O)O)C(=O)OC2` [MPA], the results for the IC50 in data set [7] and in [8] were 95 ± 27 nM and 416 ± 210 nM, respectively.
Compound `CO[C@H]1C[C@@H]2CC[C@@H](C)[C@@](O)(O2)C(=O)C(=O)N2CCCC[C@H]2C(=O)O[C@H]([C@H](C)C[C@@H]2CC[C@@H](O)[C@H](OC)C2)CC(=O)[C@H](C)/C=C(\C)[C@@H](O)[C@@H](OC)C(=O)[C@H](C)C[C@H](C)/C=C/C=C/C=C/1C` [Rapamycine, reference compound] came in with an IC50 in data set [3] (Homo sapiens, Lymphocyte) of 610 nM.

As usually defined, the IC50 is the concentration that gives 50% inhibition.
